Our source for the viscosity, speed of sound and mass density values is the NIST ThermoML archive (doi:10.1016/j.jct.2008.02.005).

± gives the expanded uncertainty stated by the source.

Data set [1] in a line: xn = mol fraction of the nth substance listed. Conditions: 101 kPa, Liquid, x2 = 0; for viscosity: Capillary tube (Ostwald / Ubbelohde) method; for speed of sound: Sing-around technique in a fixed-path interferometer.
The conditions of data set [2]: 101 kPa, Liquid; for viscosity: Capillary tube (Ostwald / Ubbelohde) method; for speed of sound: Sing-around technique in a fixed-path interferometer.

As usually defined, the viscosity is the internal friction of a fluid under shear. As a reminder, the speed of sound is the propagation velocity of pressure waves in the medium. By mass density is commonly meant mass per unit of volume. For the molecule `CCCCCCCC` [octane] + CCCCCCCCO, the viscosity in data set [1] (298.15 K) is on record as 0.518 ± 0.007 mPa·s. The speed of sound in data set [1] (298.15 K) stood at 1172.7 ± 0.8 m/s; in data set [1] (303.15 K), 1152.1 ± 0.8 m/s; in data set [1] (308.15 K), 1131.7 ± 0.8 m/s. In addition, the mass density in data set [1] (298.15 K) is 698.58 ± 0.77 kg/m3; in data set [1] (303.15 K), 694.497 ± 0.78 kg/m3; in data set [1] (308.15 K), 690.416 ± 0.78 kg/m3.
For `CCCCCCCC` [octane], the mass density in data set [2] (298.15 K) is listed as 698.58 ± 0.77 kg/m3; in data set [2] (303.15 K), 694.497 ± 0.78 kg/m3; in data set [2] (308.15 K), 690.416 ± 0.78 kg/m3. In data set [2] (298.15 K), the viscosity was found to be 0.518 ± 0.007 mPa·s. Besides, the figures for the speed of sound in data set [2] (298.15 K), in data set [2] (303.15 K) and in data set [2] (308.15 K) were 1172.7 ± 0.8 m/s, 1152.1 ± 0.8 m/s and 1131.7 ± 0.8 m/s, respectively.
Regarding `CCCCCCCCO` [octan-1-ol], in data set [2] (298.15 K), the mass density was determined as 821.813 ± 0.54 kg/m3, the viscosity was found to be 7.508 ± 0.042 mPa·s and the speed of sound came out at 1348 ± 0.8 m/s. In data set [2] (303.15 K), the mass density is on record as 818.796 ± 0.54 kg/m3 and the speed of sound stood at 1330.8 ± 0.8 m/s. In addition, in data set [2] (308.15 K), the mass density was 815.286 ± 0.55 kg/m3 and the speed of sound came to 1314.1 ± 0.8 m/s.
For the molecule `CCCCCC` [hexane] + CCCCCCCCO, in data set [1] (298.15 K), the viscosity came to 0.313 ± 0.007 mPa·s, the speed of sound is listed as 1077.8 ± 1.2 m/s and the mass density amounted to 655.072 ± 0.92 kg/m3. Moreover, in data set [1] (303.15 K), the speed of sound worked out at 1055.2 ± 1.2 m/s and the mass density worked out at 650.369 ± 0.92 kg/m3. In data set [1] (308.15 K), the speed of sound is given as 1032.9 ± 1.1 m/s and the mass density is reported as 645.767 ± 0.93 kg/m3.
Take `CCCCCCCCCC` [decane] + CCCCCCCCO: in data set [1] (298.15 K), the viscosity came to 0.852 ± 0.015 mPa·s, the speed of sound is reported as 1234.8 ± 3.1 m/s and the mass density is on record as 726.806 ± 1.7 kg/m3. Besides, in data set [1] (303.15 K), the speed of sound is reported as 1215.2 ± 3.1 m/s and the mass density is listed as 723.042 ± 1.7 kg/m3. In data set [1] (308.15 K), the speed of sound is recorded as 1195.6 ± 3.1 m/s and the mass density came to 719.23 ± 1.7 kg/m3.
Regarding `CCCCCCCCCC` [decane], in data set [2] (298.15 K), the mass density is listed as 726.806 ± 1.7 kg/m3, the viscosity is given as 0.852 ± 0.015 mPa·s and the speed of sound turned out to be 1234.8 ± 3.1 m/s. Moreover, in data set [2] (303.15 K), the mass density is reported as 723.042 ± 1.7 kg/m3 and the speed of sound amounted to 1215.2 ± 3.1 m/s. In data set [2] (308.15 K), the mass density stood at 719.23 ± 1.7 kg/m3 and the speed of sound was 1195.6 ± 3.1 m/s.
With `CCCCCC` [hexane], the mass density in data set [2] (298.15 K) turned out to be 655.072 ± 0.92 kg/m3; in data set [2] (303.15 K), 650.369 ± 0.92 kg/m3; in data set [2] (308.15 K), 645.767 ± 0.93 kg/m3. The viscosity in data set [2] (298.15 K) was found to be 0.313 ± 0.007 mPa·s. Also, the speed of sound in data set [2] (298.15 K) is given as 1077.8 ± 1.2 m/s; in data set [2] (303.15 K) it was 1055.2 ± 1.2 m/s; in data set [2] (308.15 K), 1032.9 ± 1.1 m/s.
